Assay results as given in US11259522B2, “Control of resistant pests” (priority 2017, dated 2022).
Converted amounts (≈) assume the structure as drawn. Read-outs that look alike come from different tables or passages of the source.

What was measured:
[1] = test system: Halotydeus destructor susceptible population; assay: Coated plastic vial bioassay, redlegged earth mite, susceptible population; type: in vivo; settings: for mortality at 300 µg/mL: 300 mg a.i./L
Method: The efficacy of flavesone against H. destructor was assessed using the glass vial technique developed by Hoffmann et al. (1997, Exp. Appl. Acarol., 21:151-162), adapted for plastic vials. A susceptible population of mites was collected from capeweed (Arctotheca calendula) at a Victorian site (37° 40′33″S, 145° 07′ 45″E) that had no known history of insecticide application. Following collection, samples were stored in small plastic containers with leaf material and paper towel to absorb excess moisture. Containers were kept at 4° C. prior to testing.
(§1) The test compositions included 0.1% Tween 20 non-ionic surfactant to aid the spread of insecticides when coating plastic vials. This concentration of Tween 20 has been previously shown to have no toxic effect on H. destructor. For each insecticide concentration tested, 3, 10, 30, 100, 300, 1000, 3000 and 10000 mg a.i./L (ppm), approximately 10 mL of solution was poured into a 15 mL plastic vial and swirled to ensure a complete coating, with excess liquid removed. Eight vials were coated per concentration and were left to dry overnight. Control vials were treated in the same way but with water used in place of test composition.
Eight susceptible H. destructor mites were then placed into each vial along with a leaf of common vetch (Vicia sativa). The leaf was added to provide food and increase humidity. Vials were then sealed with a lid and placed at 18° C. After 4, 6, 8 and 24 hours of exposure, the mites were scored as alive (moving freely), incapacitated (inhibited movement), or dead (no movement over a 5 second period). […]
(§2) The data produced in the assays were assessed for concentrations that caused 50, 90 and 99% mortality (lethal concentration, LC), together with 95% confidence intervals (CIs) and were estimated from observations of mortality after 24 hours exposure using a binomial logistic regression (Robertson & Preisler, 1992, Pesticide Bioassays with Arthropods. CRC: Boca Raton; Venables & Ripley, 2002, Modern Applied Statistics with S. Springer: New York). Population differences were tested by comparing the change in model deviance with and without the population factor (different regression intercepts for each population). Differences in regression slopes between populations were tested by comparing the change in model deviance with and without the population×dose interaction term. The resistance ratio of the insecticide-resistant population was estimated as the ratio of its LC50 to that of the susceptible population. All analyses were performed using R 3.3. (R Core Team 2017, R: A language and environment for statistical computing. R Foundation for Statistical Computing, Vienna, Austria. http://www.R-project.org).

[2] = test system: Sitophilus oryzae susceptible strain LS2; assay: Grain protectant bioassay on treated wheat, S. oryzae susceptible; type: in vivo; settings: for Progeny reduction (%): vs untreated control
[3] = test system: Cryptolestes ferrugineus strain QCF73 (resistant to phosphine); assay: Grain protectant bioassay on treated wheat, C. ferrugineus resistant; type: in vivo; settings: for Progeny reduction (%): vs untreated control
[4] = test system: Tribolium castaneum strain QTC279 (resistant to malathion and bioresmethrin); assay: Grain protectant bioassay on treated wheat, T. castaneum resistant; type: in vivo; settings: for Progeny reduction (%): vs untreated control
[5] = test system: Tribolium castaneum susceptible strain QTC4; assay: Grain protectant bioassay on treated wheat, T. castaneum susceptible; type: in vivo; settings: for Progeny reduction (%): vs untreated control
[6] = test system: Cryptolestes ferrugineus susceptible strain QCF31; assay: Grain protectant bioassay on treated wheat, C. ferrugineus susceptible; type: in vivo; settings: for Progeny reduction (%): vs untreated control
[7] = test system: Aedes aegypti PRS Puerto Rican strain (synthetic pyrethroid resistant) L3 larvae; assay: Mosquito larval dose response assay, PRS strain; settings: read-out: Lethal Concentration (LC50) PRS Strain
[8] = test system: Oryzaephilus surinamensis susceptible strain VOS48; assay: Grain protectant bioassay on treated wheat, O. surinamensis susceptible; type: in vivo; settings: for Progeny reduction (%): vs untreated control
[9] = test system: Aedes aegypti Liverpool strain (insecticide susceptible, LVP) L3 larvae; assay: Mosquito larval dose response assay, LVP strain; settings: read-out: Lethal Concentration (LC50) LVP Strain
[10] = test system: Halotydeus destructor resistant population (synthetic pyrethroid resistance); assay: Coated plastic vial bioassay, redlegged earth mite, resistant population; type: in vivo
Method: as §1
Eight susceptible H. destructor mites were then placed into each vial along with a leaf of common vetch (Vicia sativa). The leaf was added to provide food and increase humidity. Vials were then sealed with a lid and placed at 18° C. After 4, 6, 8 and 24 hours of exposure, the mites were scored as alive (moving freely), incapacitated (inhibited movement), or dead (no movement over a 5 second period).
The resistant population of H. destructor was collected from a lucerne paddock in the Upper South-East district of South Australia, where resistance to synthetic pyrethroids was confirmed in late 2016.
as §2

[11] = Susceptible population, 24 hours exposure
[12] = Cryptolestes ferrugineus, 336 h, 25 mg/kg, 2 weeks, mean ± SE, read-out: Adult mortality (%)
[13] = Cryptolestes ferrugineus, 336 h, 60 mg/kg, 2 weeks, mean ± SE, read-out: Adult mortality (%)
[14] = Tribolium castaneum, 336 h, 25 mg/kg, 2 weeks, mean ± SE, read-out: Adult mortality (%)
[15] = Tribolium castaneum, 336 h, 60 mg/kg, 2 weeks, mean ± SE, read-out: Adult mortality (%)
[16] = Resistant population, 24 hours exposure

With `CC(C)C(=O)C1C(=O)C(C)(C)C(=O)C(C)(C)C1=O` [Flavesone, 1-isobutyroyl-3,3,5,5-tetramethylcyclohexane-2,4,6-trione] the mortality ([1]; Example 9, all application rates above 300 mg a.i./L, by 4 hours exposure) was 100%, the mortality at 300 µg/mL ([1]; Halotydeus destructor, Example 9, 4 hours of exposure, read-out: mortality (average)) was 55% and the mortality at 300 µg/mL ([1]; Halotydeus destructor, Example 9, by 8 hours of exposure, read-out: mortality) was 100%. The LC50 ([1]; Halotydeus destructor, Susceptible population, 24 hours exposure, read-out: LC50 (mg a.i./L)) was 40.6 µg/mL (≈ 161 µM), the “LC90 (mg a.i./L)” value [1, 11] was 142.55 mg a.i./L and the “LC99 (mg a.i./L)” value [1, 11] was 561.35 mg a.i./L. The Live adult progeny ([2]; 25 mg/kg, mean ± SE) was 735.3 ± 60.6, the Live adult progeny ([2]; 60 mg/kg, mean ± SE) was 355.3 ± 64.7 and the “Progeny reduction (%)” value ([2]; 60 mg/kg) was 50.3%. The “Progeny reduction (%)” value ([2]; 60 mg/kg, listed as flavesone) was 50%, the mortality at 25 mg/kg ([2]; Sitophilus oryzae, 336 h, 25 mg/kg, 2 weeks, mean ± SE, read-out: Adult mortality (%)) was 1.3 ± 0.7% and the mortality at 60 mg/kg ([2]; Sitophilus oryzae, 336 h, 60 mg/kg, 2 weeks, mean ± SE, read-out: Adult mortality (%)) was 4 ± 1.2%. For the same molecule, the Live adult progeny ([3]; 25 mg/kg, mean ± SE) was 83.7 ± 6.5, the “Progeny reduction (%)” value ([3]; 25 mg/kg) was 75.7% and the “Progeny reduction (%)” value ([3]; 25 mg/kg, listed as flavesone) was roughly 75%. The Live adult progeny ([3]; 60 mg/kg, mean ± SE) was 0.0 ± 0.0, the “Progeny reduction (%)” value ([3]; 60 mg/kg) was 100% and the mortality at 25 mg/kg [3, 12] was 3.3 ± 1.3%. The mortality at 60 mg/kg [3, 13] was 62%, the Live adult progeny ([4]; 25 mg/kg, mean ± SE) was 265.3 ± 27.7 and the “Progeny reduction (%)” value ([4]; 25 mg/kg) was 17.4%. The Live adult progeny ([4]; 60 mg/kg, mean ± SE) was 204.3 ± 27.8, the “Progeny reduction (%)” value ([4]; 60 mg/kg) was 36.4% and the “Progeny reduction (%)” value ([4]; 60 mg/kg, listed as flavesone) was 36%. For the same molecule, the mortality at 25 mg/kg [4, 14] was 0%, the mortality at 60 mg/kg [4, 15] was 0% and the Live adult progeny ([5]; 25 mg/kg, mean ± SE) was 120.0 ± 16.1. The Live adult progeny ([5]; 60 mg/kg, mean ± SE) was 65.0 ± 3.2, the “Progeny reduction (%)” value ([5]; 60 mg/kg) was 45.2% and the “Progeny reduction (%)” value ([5]; 60 mg/kg, listed as flavesone) was 45%. It also gave a mortality at 25 mg/kg [5, 14] of 0%, a mortality at 60 mg/kg [5, 15] of 0% and a Live adult progeny ([6]; 25 mg/kg, mean ± SE) of 72.0 ± 20.3. The “Progeny reduction (%)” value ([6]; 25 mg/kg) was 76.5%, the “Progeny reduction (%)” value ([6]; 25 mg/kg, listed as flavesone) was roughly 75% and the Live adult progeny ([6]; 60 mg/kg, mean ± SE) was 0.0 ± 0.0. The “Progeny reduction (%)” value ([6]; 60 mg/kg) was 100%, the mortality at 25 mg/kg [6, 12] was 27.5 ± 17.5% and the mortality at 60 mg/kg [6, 13] was 90%. The LC50 ([7]; 24 h) was 40.9 µg/mL (≈ 162 µM), the LC50 ([7]; 48 h) was 40.5 µg/mL (≈ 161 µM) and the LC50 ([7]; 72 h) was 39.7 µg/mL (≈ 157 µM). For the same molecule, the “Adult mortality (%)” value ([8]; 25 mg/kg, 2 weeks, mean ± SE) was 22.7 ± 2.4%, the Live adult progeny ([8]; 25 mg/kg, mean ± SE) was 1.3 ± 0.7 and the “Progeny reduction (%)” value ([8]; 25 mg/kg) was 99.6%. For the same molecule, the “Adult mortality (%)” value ([8]; 60 mg/kg, 2 weeks, mean ± SE) was 91.3 ± 5.9%, the Live adult progeny ([8]; 60 mg/kg, mean ± SE) was 0.0 ± 0.0 and the “Progeny reduction (%)” value ([8]; 60 mg/kg) was 100%. For the same molecule, the mortality at 25 mg/kg ([8]; Oryzaephilus surinamensis, 336 h, 25 mg/kg, 2 weeks, mean ± SE, read-out: Adult mortality (%)) was 22%, the mortality at 60 mg/kg ([8]; Oryzaephilus surinamensis, 336 h, 60 mg/kg, 2 weeks, mean ± SE, read-out: Adult mortality (%)) was 91% and the LC50 ([9]; 24 h) was 40.9 µg/mL (≈ 162 µM). It also gave an LC50 ([9]; 48 h) of 40.5 µg/mL (≈ 161 µM), an LC50 ([9]; 72 h) of 39.7 µg/mL (≈ 157 µM) and an LC50 ([10]; Halotydeus destructor, 24 h, Resistant population, 24 hours exposure, read-out: LC50 (mg a.i./L)) of 34.2 µg/mL (≈ 136 µM). For the same molecule, the “LC50 (mg a.i./L)” value [10, 16] was 34.22 mg a.i./L, the “LC90 (mg a.i./L)” value [10, 16] was 117.89 mg a.i./L and the “LC99 (mg a.i./L)” value [10, 16] was 454.76 mg a.i./L. The “concentration causing 50% mortality” value ([10]; both susceptible and insecticide-resistant populations, 24 hours) was 34−40 mg a.i./L.
